Data taken from US4914110A, “Quinoline derivatives, their preparation and therapeutic compositions containing the same” (Societe de Conseils de Recherches et d'Applications …, priority 1988, dated 1990).
In brackets after ≈: the same amount, converted by molar mass.

How the values were obtained:
[1] = test system: Escherichia coli NCTC 8196; experiment: bactericidal activity by serial dilution in Brain Heart Infusion Broth (MIC and MMC), E.c.; format: cell-based; settings: 24 hours; for MIC: NCTC8196, 37° C., read-out: Minimal Inhibitory Concentration (MIC); for MBC: NCTC8196, sub-culture on Tryptone Soy Agar, 37° C., read-out: Minimal Microbiocidal Concentration (MMC)
Procedure: (§1) (A) The bactericidal activity of the compounds of the invention has been determined on various microorganisms, as hereinafter described.
(§2) Serial dilutions of the test and reference compounds are prepared in Brain Heart Infusion Broth (Oxoid CM225) in two-fold steps from 1000 μg/ml down to 0.5 μg/ml.
(§3) The test organisms are cultured on Tryptone Soy Agar (TSA, Oxoid CM131) and checked for viability and purity. Standardized inocula are then ppepared by inoculating slopes of TSA and incubating at 37° C. for 24 hours. The resultant bacterial growth is then removed by the addition of sterile physiological saline and shaking with glass beads. The suspensions of organisms are then standardized to give 50% transmission at […] on an SP600 Spectrophotometer. Calibration curves show this to yield approximately 10^8 colony forming units per ml.
(§4) 0.1 ml aliquots of these suspensions are then used to inoculate each of the prepared serial dilutions of the compounds in Brain Heart Infusion Broth.
(§5) The sets of dilutions are incubated at 37° C. for 24 hours and then inspected for the presence or absence of growth as shown by turbidity of the medium. The lowest concentration showing no growth of the test organism is recorded as the Minimal Inhibitory Concentration (MIC) of the compound for that organism.
(§6) Each of the tubes showing no growth are then sub-cultured onto plates of Tryptone Soy Agar and incubated at 37° C. for 24 hours. The plates are then inspected for the presence or absence of growth at the inoculation points. […] MIC and MMC are expressed in μg/ml.
(§7) The results are presented in the following table, in comparison with those for two reference compounds, nitrofuroxazide and pipemidic acid. The abreviations used in the table have the following meanings: […]

[2] = test system: Staphylococcus aureus ATCC 6538; experiment: bactericidal activity by serial dilution in Brain Heart Infusion Broth (MIC and MMC), S.a.; format: cell-based; settings: 24 hours; for MIC: ATCC6538, 37° C., read-out: Minimal Inhibitory Concentration (MIC); for MBC: ATCC6538, sub-culture on Tryptone Soy Agar, 37° C., read-out: Minimal Microbiocidal Concentration (MMC)
Procedure: as §1, §2, §3, §4, §5, §6
(§8) The results are presented in the following table, in comparison with those for two reference compounds, nitrofuroxazide and pipemidic acid. The abreviations used in the table have the following meanings:
S.a. Staphylococcus aureus

[3] = solubility in dimethylsulfoxide; format: physicochemical
[4] = test system: Shigella boydii NCTC 9328; experiment: bactericidal activity by serial dilution in Brain Heart Infusion Broth (MIC and MMC), S.b.; format: cell-based; settings: 24 hours; for MIC: NCTC9328, 37° C., read-out: Minimal Inhibitory Concentration (MIC); for MBC: NCTC9328, sub-culture on Tryptone Soy Agar, 37° C., read-out: Minimal Microbiocidal Concentration (MMC)
Procedure: as §1, §2, §3, §4, §5, §6, §8
S.b. Shigella boydii NCTC 9328

[5] = test system: Vibrio Cholerae, Vibrio parahemolyticus, Vibrio alginolyticus, Aeromonas hydrophila Sobria and Salmonella; experiment: bacteriostatic activity, preceding experiment (comparison within the series); format: cell-based; settings: compared with the compounds of examples 1 to 5
Procedure: (B) The bacteriostatic activity of the compounds of the invention has also been searched against microorganisms more particularly related with gastro-enteritis.
This experiment was conducted in Mueller-Hinton gelose with tested compounds dissolved in dimethylsulfoxide (control dimethylsulfoxide was provided) at increasing concentrations from 0.01 to 100 μg. The strains used were Vibrio Cholerae (3 strains respectively from Europe, Africa and Conth-East-Asia), Vibrio parahemolyticus, Vibrio alginolyticus, Aeromonas hydrophila Sobria and Salmonella. Minimum inhibitory concentration was found for the 7 compounds of the invention, between 0.5 and 1 μg for the Salmonella strain and between 0.1 and 0.5 μg for the other strains, which denotes a strong bacteriostatic activity.

[6] = test system: Pseudomonas aeruginosa ATCC 9027; experiment: bactericidal activity by serial dilution in Brain Heart Infusion Broth (MIC and MMC), P.a.; format: cell-based; settings: 24 hours; for MIC: ATCC9027, 37° C., read-out: Minimal Inhibitory Concentration (MIC); for MBC: ATCC9027, sub-culture on Tryptone Soy Agar, 37° C., read-out: Minimal Microbiocidal Concentration (MMC)
Procedure: as §1, §2, §3, §4, §5, §6, §8
P.a. Pseudomonas aeruginosa

[7] = test system: Proteus mirabilis NCTC 8559; experiment: bactericidal activity by serial dilution in Brain Heart Infusion Broth (MIC and MMC), P.m.; format: cell-based; settings: 24 hours; for MIC: NCTC8559, 37° C., read-out: Minimal Inhibitory Concentration (MIC); for MBC: NCTC8559, sub-culture on Tryptone Soy Agar, 37° C., read-out: Minimal Microbiocidal Concentration (MMC)
Procedure: as §1, §2, §3, §4, §5, §6, §7

[8] = test system: Streptococcus pyogenes NCTC 8198; experiment: bactericidal activity by serial dilution in Brain Heart Infusion Broth (MIC and MMC), S.p.; format: cell-based; settings: 24 hours; for MIC: NCTC8198, 37° C., read-out: Minimal Inhibitory Concentration (MIC); for MBC: NCTC8198, sub-culture on Tryptone Soy Agar, 37° C., read-out: Minimal Microbiocidal Concentration (MMC)
Procedure: as §1, §2, §3, §4, §5, §6, §8
S.p. Streptococcus pyogenes

solubility in water = format: physicochemical
[9] = test system: Salmonella enteritidis NCTC 6676; experiment: bactericidal activity by serial dilution in Brain Heart Infusion Broth (MIC and MMC), S.e.; format: cell-based; settings: Salmonella enterica, 37° C., 24 hours; for MIC: read-out: Minimal Inhibitory Concentration (MIC); for MBC: sub-culture on Tryptone Soy Agar, read-out: Minimal Microbiocidal Concentration (MMC)
Procedure: as §1, §2, §3, §4, §5, §6, §8
S.e. Salmonella enteritidis

Compound | MIC [1] | MBC [1] | MIC [2] | MBC [2] | solubility in dimethylsulfoxide [3] | MIC [4] | MBC [4] | relative activity in preceding experiment [5] | MIC [6] | MBC [6] | MIC [7] | MBC [7] | MIC [8] | MBC [8] | solubility in water (solubility in water) | MIC [9] | MBC [9]
O=C(O)c1cn(CC2CCCCC2)c2c(F)cc(F)cc2c1=O [Example 6] | 64 µg/mL (≈ 199 µM) | 64 µg/mL (≈ 199 µM) | 8 µg/mL (≈ 24.9 µM) | 16 µg/mL (≈ 49.8 µM) | insoluble | 8 µg/mL (≈ 24.9 µM) | 8 µg/mL (≈ 24.9 µM) | less active | 4 µg/mL (≈ 12.4 µM) | 8 µg/mL (≈ 24.9 µM) | 8 µg/mL (≈ 24.9 µM) | 8 µg/mL (≈ 24.9 µM) | 16 µg/mL (≈ 49.8 µM) | 16 µg/mL (≈ 49.8 µM) | insoluble | 4 µg/mL (≈ 12.4 µM) | 4 µg/mL (≈ 12.4 µM)
O=C(O)c1cn(Cc2ccc([N+](=O)[O-])o2)c2c(F)cc(F)cc2c1=O [Example 5] | 64 µg/mL (≈ 183 µM) | 64 µg/mL (≈ 183 µM) | 16 µg/mL (≈ 45.7 µM) | 64 µg/mL (≈ 183 µM) | soluble | 32 µg/mL (≈ 91.4 µM) | 32 µg/mL (≈ 91.4 µM) |  | 2 µg/mL (≈ 5.71 µM) | 2 µg/mL (≈ 5.71 µM) | 16 µg/mL (≈ 45.7 µM) | 32 µg/mL (≈ 91.4 µM) | 8 µg/mL (≈ 22.8 µM) | 32 µg/mL (≈ 91.4 µM) | insoluble | 125 µg/mL (≈ 357 µM) | 125 µg/mL (≈ 357 µM)
O=C(O)c1cn(COCCO)c2c(F)cc(F)cc2c1=O [Example 3] | 4 µg/mL (≈ 13.4 µM) | 8 µg/mL (≈ 26.7 µM) | 4 µg/mL (≈ 13.4 µM) | 8 µg/mL (≈ 26.7 µM) | soluble | 8 µg/mL (≈ 26.7 µM) | 8 µg/mL (≈ 26.7 µM) |  | 8 µg/mL (≈ 26.7 µM) | 16 µg/mL (≈ 53.5 µM) | 32 µg/mL (≈ 107 µM) | 32 µg/mL (≈ 107 µM) | 2 µg/mL (≈ 6.68 µM) | 4 µg/mL (≈ 13.4 µM) | insoluble | 32 µg/mL (≈ 107 µM) | 32 µg/mL (≈ 107 µM)
O=C(O)c1cn(CCF)c2c(F)cc(F)cc2c1=O [Example 2] | 32 µg/mL (≈ 118 µM) | 32 µg/mL (≈ 118 µM) | 4 µg/mL (≈ 14.7 µM) | 8 µg/mL (≈ 29.5 µM) | insoluble | 8 µg/mL (≈ 29.5 µM) | 16 µg/mL (≈ 59 µM) |  | 8 µg/mL (≈ 29.5 µM) | 8 µg/mL (≈ 29.5 µM) | 4 µg/mL (≈ 14.7 µM) | 8 µg/mL (≈ 29.5 µM) | 32 µg/mL (≈ 118 µM) | 32 µg/mL (≈ 118 µM) | insoluble | 4 µg/mL (≈ 14.7 µM) | 8 µg/mL (≈ 29.5 µM)
CCn1cc(C(=O)O)c(=O)c2cc(F)cc(F)c21 [Example 1, 1,4-dihydro-3-carboxy-6,8-difluoro-1-ethyl-4-oxo-quinoline] | 8 µg/mL (≈ 31.6 µM) | 8 µg/mL (≈ 31.6 µM) | 32 µg/mL (≈ 126 µM) | 32 µg/mL (≈ 126 µM) | soluble | 1 µg/mL (≈ 3.95 µM) | 1 µg/mL (≈ 3.95 µM) |  | 32 µg/mL (≈ 126 µM) | 64 µg/mL (≈ 253 µM) | 1 µg/mL (≈ 3.95 µM) | 2 µg/mL (≈ 7.9 µM) | 16 µg/mL (≈ 63.2 µM) | 32 µg/mL (≈ 126 µM) | insoluble | 2 µg/mL (≈ 7.9 µM) | 4 µg/mL (≈ 15.8 µM)
O=C(N/N=C/c1ccc([N+](=O)[O-])o1)c1ccc(O)cc1 [Nif., Nifuroxazide, reference compound] | 4 µg/mL (≈ 14.5 µM) | 4 µg/mL (≈ 14.5 µM) | 8 µg/mL (≈ 29.1 µM) | 8 µg/mL (≈ 29.1 µM) |  | 8 µg/mL (≈ 29.1 µM) | 8 µg/mL (≈ 29.1 µM) |  | 500 µg/mL (≈ 1820 µM) | 500 µg/mL (≈ 1820 µM) | 500 µg/mL (≈ 1820 µM) | 500 µg/mL (≈ 1820 µM) | 1 µg/mL (≈ 3.63 µM) | 1 µg/mL (≈ 3.63 µM) |  | 500 µg/mL (≈ 1820 µM) | 500 µg/mL (≈ 1820 µM)
O=C(O)c1cn(CC2CC2)c2c(F)cc(F)cc2c1=O [Example 4] | 64 µg/mL (≈ 229 µM) | 64 µg/mL (≈ 229 µM) | 64 µg/mL (≈ 229 µM) | 64 µg/mL (≈ 229 µM) | soluble | 32 µg/mL (≈ 115 µM) | 32 µg/mL (≈ 115 µM) |  | 8 µg/mL (≈ 28.6 µM) | 16 µg/mL (≈ 57.3 µM) | 1 µg/mL (≈ 3.58 µM) | 2 µg/mL (≈ 7.16 µM) | 4 µg/mL (≈ 14.3 µM) | 4 µg/mL (≈ 14.3 µM) | insoluble | 2 µg/mL (≈ 7.16 µM) | 4 µg/mL (≈ 14.3 µM)
O=C(O)c1cn(Cc2c(Cl)cccc2Cl)c2c(F)cc(F)cc2c1=O [Example 7] | 1 µg/mL (≈ 2.6 µM) | 2 µg/mL (≈ 5.21 µM) | 8 µg/mL (≈ 20.8 µM) | 8 µg/mL (≈ 20.8 µM) | insoluble | 16 µg/mL (≈ 41.6 µM) | 32 µg/mL (≈ 83.3 µM) | less active | 8 µg/mL (≈ 20.8 µM) | 8 µg/mL (≈ 20.8 µM) | 2 µg/mL (≈ 5.21 µM) | 4 µg/mL (≈ 10.4 µM) | 32 µg/mL (≈ 83.3 µM) | 64 µg/mL (≈ 167 µM) | insoluble | 2 µg/mL (≈ 5.21 µM) | 4 µg/mL (≈ 10.4 µM)
CCn1cc(C(=O)O)c(=O)c2cnc(N3CCNCC3)nc21 [Pip., Pipemidic acid, reference compound] | 4 µg/mL (≈ 13.2 µM) | 4 µg/mL (≈ 13.2 µM) | 2 µg/mL (≈ 6.59 µM) | 250 µg/mL (≈ 824 µM) |  | 4 µg/mL (≈ 13.2 µM) | 4 µg/mL (≈ 13.2 µM) |  | 1 µg/mL (≈ 3.3 µM) | 16 µg/mL (≈ 52.7 µM) | 4 µg/mL (≈ 13.2 µM) | 8 µg/mL (≈ 26.4 µM) | 4 µg/mL (≈ 13.2 µM) | 125 µg/mL (≈ 412 µM) |  | 4 µg/mL (≈ 13.2 µM) | 8 µg/mL (≈ 26.4 µM)
